Earlier results on 1 compound are cited in patent US20070254026A1, “SOFTGEL CAPSULES” (FORBES MEDI-TECH INC., priority 2006, published 2007).

Structures are written as SMILES.

This data set has as its system benign prostate hypertrophy. The settings on record: Berges.2000; Coleman.2002.

As to `CC[C@H](CC[C@@H](C)[C@H]1CC[C@H]2[C@@H]3CC=C4C[C@@H](O)CC[C@]4(C)[C@H]3CC[C@]12C)C(C)C` [sitosterol, β-sitosterol], the “effective dose reducing symptoms of benign prostate hypertrophy” value was 20 to 60 mg per day.
